Test results published in PMC6882468 (Journal of Enzyme Inhibition and Medicinal Chemistry, 2019).

Experiments:
[1] = biological target: p38α MAPK (Homo sapiens, UniProt Q16539); test: p38α MAPK inhibition assay in vitro; format: biochemical; details: triplicate, read-out: IC50 p38p
Protocol: In brief, after mixing the enzyme reagent with the sample, a reaction mixture containing 200 µM biotin-peptide substrate and 600 µM ATP (+100 µCi/mL γ-^32 P-ATP) was added to initiate the reaction. […] Part of the reaction solution was transferred to the well of a streptavidin-coated flash plate, washed in PBS containing 0.01% Tween and sealed. The average value of counts per minute for each group and the IC50 value was calculated.
The average fluorescence values of each well were calculated and recorded as RFU (Relative Fluorescence Unit) blank control (RFU blank), RFU 100% enzyme activity control (RFU enzyme), RFU positive drug control (RFU drug) and RFU test compound (RFU compound). The inhibition rate is calculated according to the following formula. Inhibition rate (%)= (RFU (enzyme) – RFU (compound/drug) […]) /(RFU (enzyme) – RFU (blank)) * 100%
The IC50 value of the test compound was calculated by the concentration-inhibition reaction curve and the assays were performed in triplicate.

[2] = biological target: T1, COX-1 (Ovis aries, UniProt P05979); test: COX-1 inhibition assay in vitro (COX Inhibitor Screening Kit, fluorometric); format: biochemical
T1 construct: purchased BioVision, Inc
T1 sequence (P05979 25-600): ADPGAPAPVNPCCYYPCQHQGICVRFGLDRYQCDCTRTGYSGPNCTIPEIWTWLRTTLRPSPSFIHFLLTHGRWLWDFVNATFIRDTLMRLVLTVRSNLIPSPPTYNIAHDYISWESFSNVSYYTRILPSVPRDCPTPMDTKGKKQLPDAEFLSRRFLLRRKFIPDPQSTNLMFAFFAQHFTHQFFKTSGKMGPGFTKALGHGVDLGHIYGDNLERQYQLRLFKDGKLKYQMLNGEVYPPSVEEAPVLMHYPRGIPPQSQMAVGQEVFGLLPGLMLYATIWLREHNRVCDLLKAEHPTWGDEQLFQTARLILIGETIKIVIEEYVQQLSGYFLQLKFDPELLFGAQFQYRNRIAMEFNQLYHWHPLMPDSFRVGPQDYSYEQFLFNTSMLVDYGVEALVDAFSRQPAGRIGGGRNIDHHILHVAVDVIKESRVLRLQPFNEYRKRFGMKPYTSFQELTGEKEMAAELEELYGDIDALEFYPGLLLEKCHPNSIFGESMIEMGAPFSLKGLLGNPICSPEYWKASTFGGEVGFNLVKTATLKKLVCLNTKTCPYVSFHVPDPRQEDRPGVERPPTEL
Protocol: Simply, different concentrations of the test compound solution were added to the mixed solution containing COX-1/COX-2 enzyme (10 µL) and Assay Buffer (960 µL, 0.1 M Tris-HCl pH 8.0 containing 5 µM EDTA and 2 µM phenol). […] The IC50 values were calculated as described above.

[3] = tested on: NF-κB activation in RAW264.7 cells; test: Western blot of LPS-induced NF-κB activation; format: cell-based, Murine; details: RAW264.7, 2-h pre-treatment before LPS stimulation
Protocol: (§1) The cell in 96-well plates were treated as described above and then stimulated with LPS (200 ng/mL) for 24 h. The cells were harvested and lysed in an extraction lysis buffer (Beyotime Biotechnology, Shanghai, China) containing protease inhibitors. The protein concentration was determined using a BCA protein assay kit (Thermo Scientific, 23227). The whole cell lysates were separated by 10% sodium dodecyl sulphate-polyacrylamide gel electrophoresis and transferred to a nitrocellulose membrane. Each membrane was incubated with Tris-buffered saline (pH 7.6, containing 0.05% Tween-20 and 5% non-fat milk). The nitrocellulose membrane was incubated with the primary antibody against p-JNK1/2, JNK1/2, p-p38, p38, p-ERK1/2, ERK1/2, IκBa, NF-κB p65, COX-2, iNOS or β-Actin (Abcam, Cambridge, UK). Immunoreactive bands were detected by incubating with horseradish peroxidase-conjugated secondary antibodies, and visualised using enhanced chemiluminescence reagents (Bio-Rad, Hercules, CA).
Figure 5. Compound 6n inhibited LPS-induced NF-κB activation in RAW264.7 cells. […] The levels of NF-κB p65, IκB, and their phosphorylated forms were analysed using western blot.

[4] = tested on: p38 phosphorylation in RAW264.7 cells; test: Western blot of LPS-induced p38 phosphorylation; format: cell-based, Murine; details: RAW264.7, 5, 10, 20 μM, LPS 200 ng/mL
Protocol: as §1
(§2) Figure 7. Compound 6n inhibited LPS-induced MAPK-signalling activation in RAW264.7 cells. RAW264.7 cells were co-incubated with 6n (5, 10, 20 μM) and LPS (200 ng/mL) for 30 min. The levels of p38, JNK, ERK1/2 and their phosphorylated forms were analysed using western blot.

[5] = tested on: ERK phosphorylation in RAW264.7 cells; test: Western blot of LPS-induced ERK phosphorylation; format: cell-based, Murine; details: RAW264.7, 5, 10, 20 μM, LPS 200 ng/mL
Protocol: as §1, §2

[6] = biological target: T2, COX-2 (Homo sapiens, UniProt P35354); test: COX-2 inhibition assay in vitro (COX Inhibitor Screening Kit, fluorometric)
T2 sequence (P35354 18-604): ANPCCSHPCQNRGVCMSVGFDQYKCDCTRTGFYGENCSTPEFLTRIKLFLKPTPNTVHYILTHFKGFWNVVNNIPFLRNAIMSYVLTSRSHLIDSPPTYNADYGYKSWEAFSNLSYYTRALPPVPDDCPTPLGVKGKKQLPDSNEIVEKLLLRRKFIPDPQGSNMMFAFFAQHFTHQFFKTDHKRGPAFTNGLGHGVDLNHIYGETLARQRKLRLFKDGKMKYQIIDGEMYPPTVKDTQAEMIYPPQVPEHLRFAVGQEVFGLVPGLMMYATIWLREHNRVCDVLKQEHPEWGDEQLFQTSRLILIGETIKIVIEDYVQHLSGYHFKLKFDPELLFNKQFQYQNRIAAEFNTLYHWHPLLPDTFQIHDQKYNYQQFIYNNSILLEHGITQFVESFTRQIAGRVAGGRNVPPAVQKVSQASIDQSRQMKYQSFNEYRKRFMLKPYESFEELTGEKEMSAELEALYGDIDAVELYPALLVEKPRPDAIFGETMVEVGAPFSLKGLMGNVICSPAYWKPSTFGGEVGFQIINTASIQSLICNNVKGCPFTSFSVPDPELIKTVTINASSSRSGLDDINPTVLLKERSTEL

Chain of p38α MAPK (Q16539 whole entry): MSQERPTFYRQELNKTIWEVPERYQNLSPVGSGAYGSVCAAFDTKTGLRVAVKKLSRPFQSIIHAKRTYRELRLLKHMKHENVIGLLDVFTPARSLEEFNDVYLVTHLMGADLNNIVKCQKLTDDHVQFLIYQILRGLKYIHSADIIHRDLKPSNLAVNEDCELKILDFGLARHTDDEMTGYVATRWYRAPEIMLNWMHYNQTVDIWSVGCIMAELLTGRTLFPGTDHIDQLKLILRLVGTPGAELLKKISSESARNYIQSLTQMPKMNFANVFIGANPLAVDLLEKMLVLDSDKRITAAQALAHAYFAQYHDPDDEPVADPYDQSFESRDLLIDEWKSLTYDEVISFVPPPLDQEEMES

## COc1ccccc1CN1CCN(C(=O)c2ccccc2C(C)=O)CC1 [Compound 6n, 1–(2-(4–(2-Methoxybenzyl)piperazine-1-carbonyl)phenyl)ethan-1-one]
[1]
  IC50: 1.95 ± 0.13 µM
[2]
  IC50: 12.6 ± 0.79 µM
[3]
  LPS-induced IκB phosphorylation: markedly decreased
  accumulation of NF-κB p65 subunit in the nucleus: lowered
  cytosolic IκB: increased
[4]
  p38 phosphorylation: significantly lower
[5]
  phosphorylation of ERK: no obvious effect
[6]
  IC50: 0.036 ± 0.004 µM
[6]; IC50 (COX-1)/IC50 (COX-2)
  SI (COX-1/COX-2): 349.72
